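A five-concentration, 48-hour dose response in 96-well plates underlies each endpoint, interpolated linearly between surrounding concentrations. GI50 = concentration required for 50% inhibition of growth. TGI denotes the concentration required for complete inhibition of growth.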

What all share (experiment): DTP human tumour cell line panel, 48 h
Experiment [1] has as its system HOP-92 NSCLC.
For experiment [2], the system named is UACC-257 melanoma.
Experiment [3] relates to MCF7 breast.
The subject of experiment [4] is SN12C renal.
Experiment [5] deals with HL-60(TB) leukemia.
For experiment [6], the system named is SK-MEL-5 melanoma.
The test system of experiment [7] is ACHN renal.
Experiment [8] has as its system CCRF-CEM leukemia.
For experiment [9], the system named is NCI-H460 lung.
Experiment [10] has as its system HCT-116 colon.

For the compound `C/C(O)=C(\C#N)C(=O)Nc1ccc(C(F)(F)F)cc1`, the GI50 was 13.4 µM in experiment [1]; over 100 µM in [2]; 38.5 µM in experiment [3]; 29.1 µM in [4]; 64.3 µM in experiment [5]; 15.9 µM in [6]. Moreover, the GI50 is 45.7 µM in experiment [7], 18.5 µM in experiment [8], 8.92 µM in experiment [9] and 7.5 µM in experiment [10]. The TGI in experiment [1], in [2], in [3], in experiment [4], in experiment [5] and in experiment [6] was over 100 µM in each case. Also, the TGI in experiment [7], in experiment [8], in [9] and in [10] was over 100 µM each time.
As to `COC(=O)c1cc2c3ccccc3[nH]c2c2sccc12`, the GI50 in experiment [1] was 17.2 µM; in experiment [2], 89.6 µM; in experiment [3], 27 µM; in experiment [4], 21.8 µM; in experiment [5], over 100 µM; in experiment [6], 16.3 µM. Further, the GI50 in [7] is 13.6 µM; in [8], 46 µM; in [9], 20.1 µM; in [10], 34.1 µM. The TGI in experiment [1] is 99.7 µM; in experiment [2], over 100 µM; in experiment [3], over 100 µM; in experiment [4], 61.8 µM; in [5] it was over 100 µM; in experiment [6] it was 35.4 µM. For the same compound, the TGI is over 100 µM in experiment [7], over 100 µM in [8], 43.8 µM in experiment [9] and over 100 µM in experiment [10].
As for `COc1ccc2c(c1)C(=O)/C(=C/c1ccc([N+](=O)[O-])o1)O2`, the GI50 in experiment [1] was 0.793 µM; in [2], 1.61 µM; in experiment [3], 0.716 µM; in [4], 1.91 µM; in experiment [5], 1.74 µM; in experiment [6], 1.58 µM. For the same compound, the GI50 was 0.758 µM in [7], 0.513 µM in [8], 1.75 µM in experiment [9] and 0.495 µM in experiment [10]. Besides, the TGI is 2.79 µM in experiment [1]; 3.45 µM in experiment [2]; 2.84 µM in experiment [3]; 4.36 µM in experiment [4]; 4.19 µM in experiment [5]; 3.02 µM in [6]. The TGI in [7] was found to be 2.02 µM; in [8], 2.19 µM; in experiment [9], 3.83 µM; in experiment [10], 1.22 µM.
Consider `O=C1C=CC(=O)N1c1cccc(N2C(=O)C=CC2=O)c1`, for which the GI50 in experiment [1] is 1.75 µM; in [2] it was 1.65 µM; in experiment [3] it was 2.52 µM; in experiment [4] it was 2 µM; in experiment [5], 1.79 µM; in experiment [6], 10.9 µM. Also, the GI50 is 1.77 µM in experiment [7], 2.27 µM in experiment [8], 18.3 µM in experiment [9] and 1.7 µM in [10]. The TGI was 3.78 µM in experiment [1]; 3.32 µM in [2]; 5.52 µM in [3]; 5.31 µM in experiment [4]; 5.12 µM in experiment [5]; 23 µM in [6]. Further, the TGI worked out at 3.21 µM in experiment [7], 7.65 µM in experiment [8], 38.6 µM in experiment [9] and 3.22 µM in experiment [10].
As for `Clc1ccccc1CNc1c2ccccc2nc2ccccc12`, the GI50 was 1.91 µM in experiment [1]; 2.99 µM in [2]; 1.27 µM in experiment [3]; 1.93 µM in [4]; 2.05 µM in experiment [5]; 3.09 µM in [6]. Besides, the GI50 was 1.76 µM in experiment [7], 2.74 µM in experiment [8], 1.7 µM in experiment [9] and 1.65 µM in experiment [10]. In addition, the TGI in [1] came to 8.45 µM; in [2], 11.5 µM; in experiment [3], 5.63 µM; in experiment [4], 8.27 µM; in experiment [5], 9.71 µM; in experiment [6], 9.34 µM. For the same compound, the TGI turned out to be 6.89 µM in experiment [7], 50 µM in experiment [8], 6.19 µM in experiment [9] and 8.1 µM in experiment [10].
Regarding `CCOC(=O)c1cc(-c2ccccc2)[nH]c1N/N=C/c1ccc(Cl)cc1`, the GI50 in experiment [1] is 46.9 µM; in [2] it was over 100 µM; in experiment [3], 19.5 µM; in [4] it was over 100 µM; in [5], 29.5 µM; in [6], 28.4 µM. For the same compound, the GI50 in experiment [7] is over 100 µM; in experiment [8], 5.86 µM; in experiment [9] it was 58.1 µM; in experiment [10], 47.6 µM. The TGI in [1] was over 100 µM; in experiment [2] it was over 100 µM; in experiment [3], over 100 µM; in [4], over 100 µM; in experiment [5], 63.8 µM; in [6], over 100 µM. Also, the TGI in [7], in [8], in [9] and in [10] was over 100 µM throughout.
Regarding `CCOC(=O)C#Cc1c(C(=O)OCC)nnn1Cc1ccc([N+](=O)[O-])cc1`, the GI50 in experiment [1] was 2.22 µM; in [2] it was 2.71 µM; in experiment [3], 2.3 µM; in experiment [4], 3.33 µM; in experiment [5] it was 1.62 µM; in experiment [6], 8.86 µM. Besides, the GI50 was 1.89 µM in experiment [7], 1.26 µM in experiment [8], 11.1 µM in experiment [9] and 2.02 µM in experiment [10]. The TGI in experiment [1] was 5.35 µM; in experiment [2] it was 7.08 µM; in experiment [3], 7.22 µM; in [4], 12.1 µM; in [5], 5.62 µM; in [6], 21 µM. The TGI was determined as 3.45 µM in [7], 5 µM in experiment [8], 28 µM in experiment [9] and 4.3 µM in [10].

Values taken from PubChem BioAssay (NCI).
